Data on one molecule can be found in article PMC10610115, “Identification of Potential JNK3 Inhibitors: A Combined Approach Using Molecular Docking and Deep Learning-Based Virtual Screening” (Pharmaceuticals, 2023).

For this assay, the target named is T1, JNK3 (c-Jun N-terminal kinase 3) (Homo sapiens, UniProt P53779).
T1 construct: gene MAPK10
The assay is described as follows: HTRF-type kinase assay (Cryptate/XL665), dose response. The assay is classed as biochemical. Background: TR-FRET usually uses a lanthanide donor and a delayed reading to cut background.

T1 sequence (P53779 whole entry): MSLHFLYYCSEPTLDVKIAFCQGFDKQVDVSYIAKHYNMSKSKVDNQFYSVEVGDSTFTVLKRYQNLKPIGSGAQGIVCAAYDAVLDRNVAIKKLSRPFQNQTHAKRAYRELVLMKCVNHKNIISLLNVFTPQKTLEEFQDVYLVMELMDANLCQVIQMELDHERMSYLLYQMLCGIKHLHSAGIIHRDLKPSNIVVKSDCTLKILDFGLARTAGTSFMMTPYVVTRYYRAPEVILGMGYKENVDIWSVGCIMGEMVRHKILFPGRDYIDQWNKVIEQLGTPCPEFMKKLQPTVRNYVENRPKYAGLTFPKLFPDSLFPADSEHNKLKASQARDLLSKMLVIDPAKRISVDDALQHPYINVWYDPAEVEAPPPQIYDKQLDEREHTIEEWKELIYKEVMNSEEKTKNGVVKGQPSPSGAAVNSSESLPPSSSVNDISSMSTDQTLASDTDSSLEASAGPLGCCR

For orientation: IC50 means the concentration that inhibits the measured activity by half. A higher IC50 goes with weaker potency. As to `CCc1nc(-c2cccc(C)c2)c(-c2ccnc(NC(=O)c3ccccc3)c2)s1` [compound 6, N-(4-(2-ethyl-4-(m-tolyl)thiazol-5-yl)pyridin-2-yl)benzamide], half-maximal inhibition (IC50) required 130 nM.
